Laboratory results reported in ChEMBL document CHEMBL6127016, “Design and synthesis of dual functional NBD-fluorophore-incorporated naphthalene diimide derivatives as G-quadruplex ligands” (Bioorg Med Chem Lett, 2024).
The source made the active and inactive calls. No cut-off for these calls is given here.

Experiments:
[1] = tested on: MIA PaCa-2; assay: Cytotoxicity against human MIA PaCa-2 cells assessed as inhibition of cell growth by CellTiter-Glo assay; type: functional, cell-based
[2] = tested on: Quadruplex DNA; assay: Binding affinity to human telomeric G-quadruplex HT21 DNA assessed as increase in fluorescence intensity at 5 uM by fluorescence emission spectra analysis; type: nucleic-acid assay
[3] = target: Quadruplex DNA; assay: Binding affinity to human telomeric G-quadruplex HT21 DNA assessed as dissociation constant by fluorescence titration spectra analysis; type: nucleic-acid assay
[4] = tested on: Quadruplex DNA; assay: Binding affinity to human telomeric G-quadruplex HT21 DNA assessed as increase in CD signal at 15 uM at 290 nm wavelength by circular dichroism spectroscopic analysis; type: nucleic-acid assay
[5] = tested on: Quadruplex DNA; assay: Binding affinity to human telomeric G-quadruplex HT21 DNA assessed as increase in CD signal at 15 uM at 235 nm wavelength by circular dichroism spectroscopic analysis; type: nucleic-acid assay
[6] = tested on: Quadruplex DNA; assay: Binding affinity to human telomeric G-quadruplex HT21 DNA assessed as increase in CD signal at 15 uM at 250 nm wavelength by circular dichroism spectroscopic analysis; type: nucleic-acid assay

SMILES | IC50 [1] [nM] | Activity [2] | Kd [3] [nM] | Activity [4] | Activity [5] | Activity [6]
O=C1c2ccc3c4c(c(NCC5CCN(c6ccc([N+](=O)[O-])c7nonc67)CC5)cc(c24)C(=O)N1CCCN1CCOCC1)C(=O)N(CCCN1CCOCC1)C3=O | 359 | inactive | – | – | – | –
O=C1c2ccc3c4c(c(NCCN5CCCC5)cc(c24)C(=O)N1CCCN1CCOCC1)C(=O)N(CCCN1CCOCC1)C3=O | 9.6 | – | – | – | – | –
O=C(CNc1cc2c3c(ccc4c3c1C(=O)N(CCCN1CCOCC1)C4=O)C(=O)N(CCCN1CCOCC1)C2=O)NCC1CCN(c2ccc([N+](=O)[O-])c3nonc23)CC1 | 364 | Active | 600 | – | – | –
O=C1c2ccc3c4c(c(NCCN5CCN(c6ccc([N+](=O)[O-])c7nonc67)CC5)cc(c24)C(=O)N1CCCN1CCOCC1)C(=O)N(CCCN1CCOCC1)C3=O | 77.9 | Active | 1720 | Active | inactive | inactive
